According to patent US11111242B2, “Pyrrolo[2,3-d]pyrimidinyl, pyrrolo[2,3-b]pyrazinyl and pyrrolo[2,3-d]pyridinyl acrylamides” (Pfizer Inc., priority 2013, dated 2021):

Each compound was assayed on IL-15 induced STAT5 phosphorylation in Human Whole Blood (total lymphocytes) (assay: HWB IL-15 Induced STAT5 Phosphorylation Assay). Settings: Lymphocyte, IL-15 stimulated, read-out: HWB-IL15-pSTAT5 IC50.
Assay type: cell-based
Procedure: HWB IL-15 Induced STAT5 Phosphorylation Assay
After mixing and incubating for 45 minutes at 37° C., 5 μl D-PBS (unstimulated control) or 20× stocks of 5 μl human IL-15 (final concentration is 50 ng/ml) were added, and mixed three times. After incubating 15 minutes at 37° C., 1× Lyse/Fix Buffer (BD Phosflow 5× Lyse/Fix Buffer) was added to all wells at 1000 μl/well, then incubated for 20 minutes at 37° C. and spun 5 mins at 1200 rpm. […] Following incubating at 4° C. over night, all the samples were transferred to 96-well polypropylene U-bottom plate, and checked by flow cytometry gated on total lymphocytes.
`C=CC(=O)N1CC[C@@H]2CCN(c3ncnc4[nH]ccc34)[C@@H]2C1` (single isomer, unassigned) [Example 8] showed an IC50 of 399 nM.
`C=CC(=O)N1CCC(Nc2cnc3[nH]cc(C(=O)NC(C)C4CC4)c3n2)CC1` (stereo not shown) [Example 288, 2-[(1-acryloylpiperidin-4-yl)amino]-N-(1-cyclopropylethyl)-5H-pyrrolo[2,3-b]pyrazine-7-carboxamide] gave an IC50 of 358 nM.
`C=CC(=O)N1CCC(Oc2cnc3[nH]cc(C(=O)NC(C)C)c3n2)CC1` [Example 339, 2-((1-Acryloylpiperidin-4-yl)oxy)-N-isopropyl-5H-pyrrolo[2,3-b]pyrazine-7-carboxamide] showed an IC50 of 502 nM.
With `C=CC(=O)N1CC(Nc2ncnc3[nH]ccc23)CCC1CO` (stereo not shown) [Example 52, 1-[2-(Hydroxymethyl)-5-(7H-pyrrolo[2,3-d]pyrimidin-4-ylamino)piperidin-1-yl]prop-2-en-1-one] the IC50 was 235 nM.

Each compound was assayed on IL-15 induced P-STAT5 in human PBMC (total lymphocytes) (assay: PBMC IL-15 Induced P-STAT5). Settings: Homo sapiens, PBMC, IL-15 stimulated, read-out: PBMC IL15-pSTAT5 IC50.
Assay type: cell-based
Procedure: PBMC IL-15 Induced P-STAT5
Frozen human PBMC (200-250 million cells/vial) was thawed at 37° C. The cells were transferred to 10 mL warm medium in a 50-mL conical tube, and centrifuged at 1,200 RPM at room temperature for 5 min. The supernatant was aspirated. […] After adding 47 ml D-PBS (37° C.) to PBMC/FBS suspension, centrifuging at 1,200 RPM at room temperature for 5 min, and aspirating the supernatant, the cells were resuspended in 20 mL warm RPMI medium. Ninety μL of cell suspension were pipetted per well in a 96-well, deep-well, V-bottom plate, and the plate was incubated at 37° C. for 30 min. […] After adding 0.8 mL staining buffer per well, the plates were centrifuged at 1,200 RPM (Beckman GS-6R or Sorvall Legend) at room temperature for 5 min, and again the supernatant was aspirated using a 8-channel or 12-channel manifold. The plate was vortexed, and 0.35 mL 90% methanol/10% H2O (−20° C.) was added per well, and the plate incubated on ice for 20 min. After again adding 0.8 mL staining buffer per well, the plates were centrifuged at 1,200 RPM (Beckman GS-6R or Sorvall Legend) at room temperature for 5 min, and again the supernatant was aspirated using a 8-channel or 12-channel manifold, and then 0.8 mL Staining buffer was added per well. After once again adding 0.8 mL staining buffer per well, the plates were centrifuged at 1,200 RPM (Beckman GS-6R or Sorvall Legend) at room temperature for 5 min, and again the supernatant was aspirated using a 8-channel or 12-channel manifold. […] Samples of 250 μL/well were transferred to a 96-well U-bottom plate, and the FACS analysis was performed gating on total lymphocytes. Samples were analyzed using a BD Calibur™ or BD FACSCanto™ flow cytometer equipped with the BD High Throughput Sampler.
For `C=CC(=O)N1CCC(Nc2cnc3[nH]cc(C(=O)NC(C)C4CC4)c3n2)CC1` (stereo not shown) [Example 288, 2-[(1-acryloylpiperidin-4-yl)amino]-N-(1-cyclopropylethyl)-5H-pyrrolo[2,3-b]pyrazine-7-carboxamide], the IC50 was 44.4 nM.
`C=CC(=O)N1CC[C@H]2CCN(c3ncnc4[nH]ccc34)[C@H]2C1` (racemic) [Example 21, rac-1-((3aR,7aR)-1-(7H-Pyrrolo[2,3-d]pyrimidin-4-yl)hexahydro-1H-pyrrolo[2,3-c]pyridin-6(2H)-yl)prop-2-en-1-one] showed an IC50 of 236 nM.
For `C=CC(=O)N1CCC(Oc2cnc3[nH]cc(-c4ccnc(C)c4)c3n2)CC1` [Example 220, 1-(4-{[7-(2-methylpyridin-4-yl)-5H-pyrrolo[2,3-b]pyrazin-2-yl]oxy}piperidin-1-yl)prop-2-en-1-one], the IC50 was 464 nM.
`C=C(C(=O)N1CC[C@@H]2CCN(c3ncnc4[nH]ccc34)[C@@H]2C1)C(F)(F)F` [Example 41, 1-((3aS,7aS)-1-(7H-Pyrrolo[2,3-d]pyrimidin-4-yl)hexahydro-1H-pyrrolo[2,3-c]pyridin-6(2H)-yl)-2-(trifluoromethyl)prop-2-en-1-one] showed an IC50 of 446 nM.
`C=CC(=O)N1CC(Nc2ncnc3[nH]ccc23)CCC1(C)C` (stereo not shown) [Example 67, 1-(5-((7H-Pyrrolo[2,3-d]pyrimidin-4-yl)amino)-2,2-dimethylpiperidin-1-yl)prop-2-en-1-one] was tested, and the IC50 was 6900 nM.
For `C=CC(=O)N[C@H]1C[C@@H](Nc2cnc3[nH]cc(C(=O)NC(C)C)c3n2)C1` [Example 184, 2-{[cis-3-(acryloylamino)cyclobutyl]amino}-N-(propan-2-yl)-5H-pyrrolo[2,3-b]pyrazine-7-carboxamide], the IC50 was 3410 nM.
`C=CC(=O)N(C)C1CN(c2cnc3[nH]cc(C(=O)NC(C)C)c3n2)C1` [Example 187, 2-{3-[acryloyl(methyl)amino]azetidin-1-yl}-N-(propan-2-yl)-5H-pyrrolo[2,3-b]pyrazine-7-carboxamide] was tested, and the IC50 was 710 nM.
`C=CC(=O)N1CCC[C@@H](Nc2ncnc3[nH]cc(-c4ccc(C(=O)N(C)C)cc4)c23)C1` [Example 27, 4-(4-{[(3R)-1-acryloylpiperidin-3-yl]amino}-7H-pyrrolo[2,3-d]pyrimidin-5-yl)-N,N-dimethylbenzamide] showed an IC50 of 1870 nM.
For `C=CC(=O)N1CCC(Nc2cnc3[nH]cc(-c4ccc(C)nc4)c3n2)CC1` [Example 199, 1-(4-{[7-(6-methylpyridin-3-yl)-5H-pyrrolo[2,3-b]pyrazin-2-yl]amino}piperidin-1-yl)prop-2-en-1-one], the IC50 was 735 nM.

Same assay, conditions: IL-15 stimulated, read-out: PBMC IL15-pSTAT5 IC50
In the case of `C=CC(=O)N1CCC(Oc2cnc3[nH]cc(C(=O)NC(C)C)c3n2)CC1` [Example 339, 2-((1-Acryloylpiperidin-4-yl)oxy)-N-isopropyl-5H-pyrrolo[2,3-b]pyrazine-7-carboxamide], the IC50 is reported as 80.6 nM.
For `C=CC(=O)N1CCN(c2cnc3[nH]cc(C(=O)NC(C)C)c3n2)[C@H](CC)C1` [Example 321, 2-[(2R)-4-acryloyl-2-ethylpiperazin-1-yl]-N-(propan-2-yl)-5H-pyrrolo[2,3-b]pyrazine-7-carboxamide], the IC50 was 415 nM.
Compound `C=CC(=O)N1CCC(Nc2cnc3[nH]cc(C(=O)N4CCCC4)c3n2)CC1` [Example 287, 1-(4-{[7-(pyrrolidin-1-ylcarbonyl)-5H-pyrrolo[2,3-b]pyrazin-2-yl]amino}piperidin-1-yl)prop-2-en-1-one] has an IC50 of 7370 nM.
With `C=CC(=O)N1CCN(c2cnc3[nH]cc(C(=O)NC(C)C)c3n2)C[C@H]1C(C)C` [Example 294, 2-[(3R)-4-acryloyl-3-(propan-2-yl)piperazin-1-yl]-N-(propan-2-yl)-5H-pyrrolo[2,3-b]pyrazine-7-carboxamide] the IC50 was 1000 nM.
`C=CC(=O)N1CC2CCC1CN2c1cnc2[nH]cc(C(=O)NC(C)C)c2n1` (stereo not shown) [Example 308, 2-(5-acryloyl-2,5-diazabicyclo[2.2.2]oct-2-yl)-N-(propan-2-yl)-5H-pyrrolo[2,3-b]pyrazine-7-carboxamide] gave an IC50 of 2240 nM.
Compound `C=CC(=O)N1CCC(Oc2cnc3[nH]cc(-c4ccc(F)nc4)c3n2)CC1` [Example 226, 1-(4-{[7-(6-fluoropyridin-3-yl)-5H-pyrrolo[2,3-b]pyrazin-2-yl]oxy}piperidin-1-yl)prop-2-en-1-one] has an IC50 of 699 nM.
In the case of `C=CC(=O)N1CCC[C@@H](Nc2ncnc3[nH]cc(-c4ccccc4O)c23)C1` [Example 25, 1-[(3R)-3-{[5-(2-hydroxyphenyl)-7H-pyrrolo[2,3-d]pyrimidin-4-yl]amino}piperidin-1-yl]prop-2-en-1-one], the IC50 is reported as 84 nM.
`C=CC(=O)N1CCN(c2cnc3[nH]cc(C(=O)NC(C)C)c3n2)[C@H](C)C1` [Example 307, 2-[(2R)-4-acryloyl-2-methylpiperazin-1-yl]-N-(propan-2-yl)-5H-pyrrolo[2,3-b]pyrazine-7-carboxamide] gave an IC50 of 457 nM.
For `C=CC(=O)N1C[C@@H]2C(Nc3cnc4[nH]cc(C(=O)NC(C)C)c4n3)[C@@H]2C1` (stereo partly drawn) [Example 189, 2-{[(1R,5S,6s)-3-acryloyl-3-azabicyclo[3.1.0]hex-6-yl]amino}-N-(propan-2-yl)-5H-pyrrolo[2,3-b]pyrazine-7-carboxamide], the IC50 was 1740 nM.
With `C=CC(=O)N1CCC(Oc2cnc3[nH]cc(-c4ccc(C)nc4)c3n2)CC1` [Example 214, 1-(4-{[7-(6-methylpyridin-3-yl)-5H-pyrrolo[2,3-b]pyrazin-2-yl]oxy}piperidin-1-yl)prop-2-en-1-one] the IC50 was 1110 nM.
With `C=CC(=O)N1CCC(Nc2cnc3[nH]cc(C(=O)NCC4(O)CCCC(F)(F)C4)c3n2)CC1` (stereo not shown) [Example 249, 2-[(1-acryloylpiperidin-4-yl)amino]-N-[(3,3-difluoro-1-hydroxycyclohexyl)methyl]-5H-pyrrolo[2,3-b]pyrazine-7-carboxamide] the IC50 was 2110 nM.
With `C=CC(=O)N1CCC(Nc2cnc3[nH]cc(C(=O)NCC4(O)CCC(F)(F)CC4)c3n2)CC1` [Example 252b, 2-[(1-acryloylpiperidin-4-yl)amino]-N-[(4,4-difluoro-1-hydroxycyclohexyl)methyl]-5H-pyrrolo[2,3-b]pyrazine-7-carboxamide] the IC50 was 2470 nM.
For `C=CC(=O)N1CCC(Nc2cnc3[nH]cc(-c4ccc(S(C)(=O)=O)cc4)c3n2)CC1` [Example 203, 1-[4-({7-[4-(methylsulfonyl)phenyl]-5H-pyrrolo[2,3-b]pyrazin-2-yl}amino)piperidin-1-yl]prop-2-en-1-one], the IC50 was 1180 nM.
`C=CC(=O)N1CCC[C@@H](Nc2ncnc3[nH]cc(CC#N)c23)C1` [Example 20, (R)-2-(4-((1-Acryloylpiperidin-3-yl)amino)-7H-pyrrolo[2,3-d]pyrimidin-5-yl)acetonitrile] was tested, and the IC50 was 362 nM.
`C=CC(=O)N1CCN(c2cnc3[nH]cc(C(=O)NC(C)C)c3n2)[C@@H](C)C1` [Example 297, 2-[(2S)-4-acryloyl-2-methylpiperazin-1-yl]-N-(propan-2-yl)-5H-pyrrolo[2,3-b]pyrazine-7-carboxamide] was tested, and the IC50 was 752 nM.
